Measurements reported in ChEMBL document CHEMBL1135216, “New 2-(1-adamantylcarbonyl)pyridine and 1-acetyladamantane thiosemicarbazones-thiocarbonohydrazones: cell growth inhibitory, antiviral and antimicrobial activity evaluation” (Bioorg Med Chem Lett, 2002).
Converted amounts (≈) assume the structure as drawn.

Columns and labels:
[1] = test system: HeLa; assay: Tested for antiviral activity against coxsackie-B4 virus in human epithelial cell line; format: functional
[2] = test system: E6SM; assay: Tested for antiviral activity against thymidine kinase-deficient (TK-HSV-2G) virus in E6SM cell line(human embryonic skin-muscle fibroblasts); format: functional
[3] = test system: Vero; assay: Tested for cytotoxic activity in African green monkey kidney cells (Vero); format: functional; conditions: Chlorocebus sabaeus
[4] = test system: E6SM; assay: Tested for antiviral activity against herpes simplex virus type 1(KOS) in E6SM cell line(human embryonic skin-muscle fibroblasts); format: functional
[5] = test system: Klebsiella pneumoniae; assay: Tested for the antimicrobial activity against Klebsiella pneumoniae ATCC 13883; format: functional
[6] = test system: HuT78; assay: Tested for the inhibitory concentration against cell growth of human leukemic cell line HuT78; format: functional
[7] = test system: CCRF-CEM; assay: Tested for the inhibitory concentration against cell growth of Tcell leukemic cell line CCRF-CEM using MTT assay; format: functional; conditions: Homo sapiens
[8] = test system: E6SM; assay: Tested for antiviral activity against VSV-virus in human embryonic skin muscle fibroblasts; format: functional; conditions: Muscle tissue
[9] = test system: HEL; assay: Tested for antiviral activity against thymidine kinase deficient Varicella zoster virus in human embryonic lung fibroblasts; format: functional
[10] = test system: HEL; assay: Tested for cytotoxic activity in human embryonic lung fibroblast (HEL); format: functional
[11] = test system: Vero; assay: Tested for antiviral activity against coxsackie B-4 virus in African green monkey kidney cell (Vero); format: functional; conditions: Chlorocebus sabaeus
[12] = test system: HeLa; assay: Tested for cytotoxic activity in human epithelial cell line (HeLa); format: functional
[13] = test system: MT4; assay: (§1) Tested for cytotoxic concentration required to reduce the viability of MT-4 cells by 50%; format: functional, cell-based; conditions: Homo sapiens, read-out: EC50 (the source's name)
[14] = test system: HeLa; assay: The compound was tested for antiviral activity against VSV-virus in human epithelial cells; format: functional
[15] = test system: MOLT-4; assay: Tested for the inhibitory concentration against cell growth of Tcell leukemic cell line MOLT-4 using MTT assay; format: functional; conditions: Homo sapiens
[16] = test system: HuT78; assay: Tested for the inhibitory concentration against cell growth of HuT78 T lymphoma using MTT assay; format: functional; conditions: Homo sapiens
[17] = test system: MOLT-4; assay: Tested for the inhibitory concentration against cell growth of human leukemic cell line MOLT-4; format: functional
[18] = test system: K562; assay: Tested for the inhibitory concentration against cell growth of human leukemic cell line K562; format: functional
[19] = test system: Vero; assay: Tested for antiviral activity against Reo-1 virus in African green monkey kidney cell (Vero); format: functional; conditions: Chlorocebus sabaeus
[20] = test system: HL-60; assay: Tested for the inhibitory concentration against cell growth of HL60 acute myeloid leukemia using MTT assay; format: functional; conditions: Homo sapiens
[21] = test system: RPMI-8226; assay: Tested for the inhibitory concentration against cell growth of […] multiple myeloma using MTT assay; format: functional; conditions: Homo sapiens
[22] = test system: HL-60; assay: Tested for the concentration required to reduce the viability of leukemia cells by 50% against cell growth of HL60 acute myeloid leukemia using MTT assay; format: functional; conditions: Homo sapiens, read-out: LC50 (the source's name)
[23] = test system: CCRF-CEM; assay: Tested for the concentration required to reduce the viability of leukemia cells by 50% against cell growth of T cell leukemia cell line CCRF-CEM using MTT assay; format: functional; conditions: Homo sapiens, read-out: LC50 (the source's name)
[24] = test system: Staphylococcus hominis; assay: (§2) Tested for the antimicrobial activity against Staphylococcus hominis ATCC 27844; format: functional
[25] = test system: CCRF-CEM; assay: Tested for the inhibitory concentration against cell growth of human leukemic cell line CCRF-CEM; format: functional
[26] = test system: MT4; assay: Tested for effective concentration required to protect MT-4 cells against the cytopathicity of HIV-1(IIIB); format: functional; conditions: Homo sapiens, read-out: LC50 (the source's name)
[27] = test system: Vero; assay: Tested for antiviral activity against parainfluenza virus in african green monkey kidney cell (Vero); format: functional; conditions: Chlorocebus sabaeus
[28] = test system: Vero; assay: Tested for antiviral activity against Sindbis virus in African green monkey kidney cell (Vero); format: functional; conditions: Chlorocebus sabaeus
[29] = test system: Escherichia coli; assay: Tested for the antimicrobial activity against Escherichia coli ATCC 25922; format: functional
[30] = test system: E6SM; assay: Tested for cytotoxic activity in human embryonic skin muscle fibroblast (E6SM); format: functional; conditions: Muscle tissue
[31] = test system: RPMI-8226; assay: Tested for the concentration required to reduce the viability of leukemia cells by 50% against cell growth of RPMI8226 multiple myeloma using MTT assay; format: functional; conditions: Homo sapiens, read-out: LC50 (the source's name)
[32] = test system: K562; assay: Tested for the inhibitory concentration against cell growth of K562 chronic myeloid leukemia using MTT assay; format: functional; conditions: Homo sapiens
[33] = test system: Staphylococcus epidermidis; assay: Tested for the antimicrobial activity against Staphylococcus epidermidis ATCC 12228; format: functional
[34] = test system: E6SM; assay: Tested for antiviral activity against vaccinia virus in human embryonic skin muscle fibroblast; format: functional; conditions: Muscle tissue
[35] = test system: HuT78; assay: Tested for the concentration required to reduce the viability of leukemia cells by 50% against cell growth of HuT78 T lymphoma using MTT assay; format: functional; conditions: Homo sapiens, read-out: LC50 (the source's name)
[36] = test system: Staphylococcus aureus; assay: Tested for the antimicrobial activity against Staphylococcus aureus ATCC 6538; format: functional
[37] = test system: MT4; assay: (§3) Tested for effective concentration required to protect MT-4 cells against the cytopathicity of HIV-2(ROD); format: functional; conditions: Homo sapiens, read-out: LC50 (the source's name)
[38] = test system: RPMI-8226; assay: Tested for the inhibitory concentration against cell growth of human leukemic cell line RPMI8226; format: functional
[39] = test system: E6SM; assay: The compound was tested for antiviral activity against thymidine kinase-deficient (TK-HSV-1)virus in E6SM cell line(human embryonic skin-muscle fibroblasts); format: functional
[40] = test system: HEL; assay: Tested for antiviral activity against thymidine kinase wild type Varicella zoster virus in human embryonic lung fibroblast; format: functional
[41] = test system: K562; assay: Tested for the concentration required to reduce the viability of leukemia cells by 50% against cell growth of K562 chronic myeloid leukemia using MTT assay; format: functional; conditions: Homo sapiens, read-out: LC50 (the source's name)
[42] = test system: Vero; assay: Tested for antiviral activity against Punta toro virus in African green monkey kidney cell (Vero); format: functional; conditions: Chlorocebus sabaeus
[43] = test system: HEL; assay: Tested for antiviral activity against human cytomegalovirus (AD-169) in human embryonic lung fibroblasts; format: functional
[44] = test system: MOLT-4; assay: Tested for the concentration required to reduce the viability of leukemia cells by 50% against cell growth of T cell leukemia cell line MOLT-4 using MTT assay; format: functional; conditions: Homo sapiens, read-out: LC50 (the source's name)
[45] = test system: HL-60; assay: Tested for the inhibitory concentration against cell growth of human leukemic cell line HL60; format: functional
[46] = test system: MT4; assay: as §3; format: functional, cell-based; conditions: Homo sapiens
[47] = as §2; format: functional
[48] = test system: MT4; assay: as §1; format: functional; conditions: Homo sapiens
[49] = test system: E6SM; assay: Antiviral activity against thymidine kinase-deficient (TK-HSV-1)virus in E6SM cell line(human embryonic skin-muscle fibroblasts); format: functional
[50] = test system: E6SM; assay: Antiviral activity against thymidine kinase-deficient (TK-HSV-2G) virus in E6SM cell line(human embryonic skin-muscle fibroblasts); format: functional

In the case of `C/C(=N/N=C(/S)N/N=C(\S)c1ccc(Cl)cc1)C12CC3CC(CC(C3)C1)C2`, the MIC [1] is reported as > 40 µg/mL, the MIC [2] is reported as > 40 µg/mL and the MCC [3] is reported as > 400 µg/mL. The MIC [4] was > 40 µg/mL, the MIC [5] was > 2300 µg/mL and the GI50 [6] was 100 µM. For the same compound, the TGI [7] was 100 µM, the MIC [8] was > 40 µg/mL and the MIC [9] was > 2 µg/mL. For the same compound, the MCC [10] was > 5 µg/mL, the MIC [11] was > 40 µg/mL and the MCC [12] was > 200 µg/mL. For the same compound, the CC50 [13] was 10.1 µM, the MIC [14] was > 40 µg/mL and the TGI [15] was 100 µM. It also gave a TGI [16] of 100 µM, a GI50 [17] of 100 µM and a GI50 [18] of 100 µM. For the same compound, the MIC [19] was > 40 µg/mL, the TGI [20] was 100 µM and the TGI [21] was 100 µM. It also gave a CC50 [22] of 100 µM, a CC50 [23] of 100 µM and an MIC [24] of 1150 µg/mL (≈ 2730 µM). For the same compound, the GI50 [25] was 100 µM, the EC50 [26] was > 10 µM and the MIC [27] was > 40 µg/mL. For the same compound, the MIC [28] was > 40 µg/mL, the MIC [29] was > 2300 µg/mL and the MCC [30] was 200 µg/mL. The CC50 [31] was 100 µM, the TGI [32] was 100 µM and the MIC [33] was 1150 µg/mL (≈ 2730 µM). For the same compound, the MIC [34] was > 5 µg/mL, the CC50 [35] was 100 µM and the MIC [36] was 1150 µg/mL (≈ 2730 µM). The CC50 [37] was > 10 µM, the GI50 [38] was 100 µM and the MIC [39] was > 40 µg/mL. The MIC [40] was > 2 µg/mL, the CC50 [41] was 100 µM and the MIC [42] was > 40 µg/mL. The MIC [43] was > 2 µg/mL, the CC50 [44] was 100 µM and the GI50 [45] was 100 µM.
For `S=C(N/N=C(/c1ccccn1)C12CC3CC(CC(C3)C1)C2)NNC(=S)c1ccc(Cl)cc1`, the MIC [1] was > 3.2 µg/mL, the MCC [3] was 80 µg/mL and the MIC [4] was > 16 µg/mL. For the same compound, the MIC [5] was > 2000 µg/mL, the GI50 [6] was 8 µM and the TGI [7] was 100 µM. The MIC [8] was > 16 µg/mL, the MIC [9] was > 2 µg/mL and the MCC [10] was 5 µg/mL. The MIC [11] was 9.6 µg/mL (≈ 19.8 µM), the MCC [12] was > 16 µg/mL and the MIC [14] was > 3.2 µg/mL. The EC50 [46] was > 3 µM, the TGI [15] was 100 µM and the TGI [16] was 100 µM. For the same compound, the GI50 [17] was 100 µM, the GI50 [18] was 100 µM and the MIC [19] was > 16 µg/mL. For the same compound, the TGI [20] was 9.5 µM, the TGI [21] was 68.3 µM and the CC50 [22] was 85.5 µM. The CC50 [23] was 100 µM, the MIC [47] was 1000 µg/mL (≈ 2070 µM) and the GI50 [25] was 76 µM. For the same compound, the EC50 [26] was > 3 µM, the MIC [27] was > 16 µg/mL and the MIC [28] was > 16 µg/mL. The MIC [29] was > 2000 µg/mL, the MCC [30] was 80 µg/mL and the CC50 [31] was 100 µM. For the same compound, the CC50 [48] was 2.8 µM, the TGI [32] was 100 µM and the MIC [33] was 1000 µg/mL (≈ 2070 µM). The MIC [34] was > 16 µg/mL, the MIC [49] was > 16 µg/mL and the CC50 [35] was 100 µM. The MIC [36] was 1000 µg/mL (≈ 2070 µM), the GI50 [38] was 6.7 µM and the MIC [40] was > 2 µg/mL. The CC50 [41] was 100 µM, the MIC [42] was > 16 µg/mL and the MIC [43] was > 5 µg/mL. The CC50 [44] was 100 µM, the GI50 [45] was 4.1 µM and the MIC [50] was > 16 µg/mL.
